{
  "source": "the NIST ThermoML archive (doi:10.1016/j.jct.2018.02.025)",
  "conditions": "Transpiration method",
  "note": "Values joined by “and” are separate entries in the source; they are usually repeats but may differ in a detail not shown here. Identical values can stand only once. ± gives the expanded uncertainty stated by the source.",
  "data": [
    {"compound": "c1ccc(-c2ccccc2)cc1", "note": "[biphenyl]", "values": [
      {"measurement": "vapor or sublimation pressure", "setting": "295.4 K, Crystal", "result": "0.00091 ± 7e-05", "unit": "kPa"},
      {"measurement": "vapor or sublimation pressure", "setting": "298.2 K, Crystal", "result": "0.00126 ± 0.0001", "unit": "kPa"},
      {"measurement": "vapor or sublimation pressure", "setting": "303.3 K, Crystal", "result": "0.00236 ± 0.00016", "unit": "kPa"},
      {"measurement": "vapor or sublimation pressure", "setting": "308.2 K, Crystal", "result": "0.00383 ± 0.00026", "unit": "kPa"},
      {"measurement": "vapor or sublimation pressure", "setting": "313.2 K, Crystal", "result": "0.00653 ± 0.00046", "unit": "kPa"},
      {"measurement": "vapor or sublimation pressure", "setting": "315.4 K, Crystal", "result": "0.00777 ± 0.00054", "unit": "kPa"},
      {"measurement": "vapor or sublimation pressure", "setting": "318.3 K, Crystal", "result": "0.01045 ± 0.00072", "unit": "kPa"},
      {"measurement": "vapor or sublimation pressure", "setting": "323.5 K, Crystal", "result": "0.01637 ± 0.0011", "unit": "kPa"},
      {"measurement": "vapor or sublimation pressure", "setting": "325.8 K, Crystal", "result": "0.02135 ± 0.0014", "unit": "kPa"},
      {"measurement": "vapor or sublimation pressure", "setting": "328.4 K, Crystal", "result": "0.02749 ± 0.0018", "unit": "kPa"},
      {"measurement": "vapor or sublimation pressure", "setting": "331.3 K, Crystal", "result": "0.03389 ± 0.0022", "unit": "kPa"},
      {"measurement": "vapor or sublimation pressure", "setting": "333.4 K, Crystal", "result": "0.0404 ± 0.0026", "unit": "kPa"},
      {"measurement": "vapor or sublimation pressure", "setting": "335.8 K, Crystal", "result": "0.04928 ± 0.0032", "unit": "kPa"},
      {"measurement": "vapor or sublimation pressure", "setting": "338.4 K, Crystal", "result": "0.06189 ± 0.004", "unit": "kPa"},
      {"measurement": "vapor or sublimation pressure", "setting": "345.7 K, Liquid", "result": "0.1041 ± 0.011", "unit": "kPa"},
      {"measurement": "vapor or sublimation pressure", "setting": "347.7 K, Liquid", "result": "0.1176 ± 0.013", "unit": "kPa"},
      {"measurement": "vapor or sublimation pressure", "setting": "348.3 K, Liquid", "result": "0.1226 ± 0.013", "unit": "kPa"},
      {"measurement": "vapor or sublimation pressure", "setting": "350.4 K, Liquid", "result": "0.1376 ± 0.015", "unit": "kPa"},
      {"measurement": "vapor or sublimation pressure", "setting": "353.3 K, Liquid", "result": "0.1597 ± 0.017", "unit": "kPa"},
      {"measurement": "vapor or sublimation pressure", "setting": "358.3 K, Liquid", "result": "0.2153 ± 0.023", "unit": "kPa"},
      {"measurement": "vapor or sublimation pressure", "setting": "363.3 K, Liquid", "result": "0.2837 ± 0.03", "unit": "kPa"},
      {"measurement": "vapor or sublimation pressure", "setting": "368.2 K, Liquid", "result": "0.3498 ± 0.037 kPa and 0.3659 ± 0.039 kPa"},
      {"measurement": "vapor or sublimation pressure", "setting": "373.1 K, Liquid", "result": "0.4791 ± 0.051", "unit": "kPa"},
      {"measurement": "vapor or sublimation pressure", "setting": "375.4 K, Liquid", "result": "0.5425 ± 0.058", "unit": "kPa"},
      {"measurement": "vapor or sublimation pressure", "setting": "376.2 K, Liquid", "result": "0.5682 ± 0.061", "unit": "kPa"}
    ]}
  ]
}
